Measured values: article PMC8148468, “Shikimic acid protects skin cells from UV-induced senescence through activation of the NAD+-dependent deacetylase SIRT1” (Aging (Albany NY), 2021)

Experiments:
SIRT1 = SIRT1 mRNA and protein levels in HDF; format: cell-based, human; settings: Shikimic acid 5, 10, 25, 50 mM, 24h
Experimental: RNA was extracted from cell pellets using the Total RNA Purification Kit (Norgen, Canada), according to the manufacturer’s protocol. Extracted RNA was quantified using a NanoDrop® ND-1000 UV-Vis Spectrophotometer (Thermo Fisher Scientific, USA) and 300 ng of RNA were retrotranscribed to cDNA using the PrimeScriptTM RT reagent kit (Takara Bio Inc., Japan). cDNA was diluted 1/10 in ultrapure water and qPCR mix was prepared by adding cDNA (12 ng), SYBR green supermix (Bio Rad, USA), forward and reverse primers (0.2μM). The primers and their respective sequences are listed in Supplementary Table 1. qPCR protocol included one step at 95° C for 30 s, 40 cycles at 95° C for 10s, and 60° C for 1min. The results were analyzed with Bio-Rad CFX Manager software. BACT was used as a housekeeping gene to normalize gene expression.
(§1) Protein levels were analyzed as previously described. Cells were directly lysed in 1x Laemmli Buffer (Bio-Rad, USA), incubated at 95° C and centrifuged. Supernatant was subjected to SDS-polyacrylamide gel electrophoresis, and successive steps were performed as described. The list of antibodies used is included in Supplementary Table 2.
Student T-test, *p<0.05, **p<0.01, ***p<0.001.
(1 picture or pasted object on this page, not shown here)

[1] = tested on: UVB-irradiated human dermal fibroblasts (HDFs); assay: UVB-induced senescence assay: SA-β-Gal staining; format: cell-based; settings: UVB-irradiated HDF
Experimental: In the second approach, we established a method for inducing senescence in these cells with 2 cycles of UVB irradiation 72h apart (Figure 2A). The use of UVA to induce senescence was discarded due to its considerably longer time requirement, being unsuitable to screen 30 compounds within a reasonable period. Cells were treated with these compounds throughout the duration of the assay and cellular senescence was monitored with two markers: accumulation of SA-β-galactosidase (SA-β-Gal) activity, and the decrease in expression of HAS2 (hyaluronic acid synthase 2), a previously reported marker of skin senescence.
Figure 2 (A) Schematic representation of the protocol for senescence induction using UVB irradiation. Cells were treated -/+ the compounds from day 1 to 7 after seeding, irradiated with UVB on days 2 and 5 and harvested for analysis on day 7. […] (C) Phase-contrast (left column) and bright field (right column) microscope images of SA-β-Gal staining showing non-irradiated cells, UVB-irradiated cells non-treated and treated with Gallic acid or Shikimic acid at the indicated concentrations. (D) Percentage of SA-β-Gal positive cells and (E) Relative HAS2 mRNA levels in non-irradiated cells, UVB-irradiated cells and UVB-irradiated cells treated with Gallic acid or Shikimic acid at the indicated concentrations. Student T-test, *p<0.05, **p<0.01, ***p<0.001.
The protocol for senescence induction using UVB irradiation is described in the Supplementary Methods. SA-β-Gal staining, WST-1, sulforhodamine B (SRB) and trypan blue assays were performed as previously described. For the siRNA experiments, the protocol for senescence induction using UVB irradiation was the same as in the Supplementary Methods. Specific siRNA (Horizon discovery, UK) for SIRT1, SIRT2, SIRT6, BiP or scramble siRNA were incubated for 6 hours before each irradiation step.
Senescence induction by UVB irradiation For the non-irradiation control conditions, HDF were […]
After 24h, culture medium was removed and well plates. After 24h, culture medium was removed replaced by fresh cell culture medium containing the and replaced with fresh cell culture medium containing compounds at different concentrations. After 24h, the compounds at different concentrations. […]
cell culture medium was removed, and cells were cells/plate in fresh cell culture medium containing the irradiated at 25 mJ/cm2 of UVB light (312 nm) in a Bio- compound in 6-well plates. After 3 days, cells were […]
amount of PBS. PBS was then removed and fresh cell fresh cell culture medium containing the compound in culture medium with the compound was added to each 6-well plates. After 2 days, cells were processed well. After 3 days, cells were irradiated again under the according to the qPCR, β-Gal staining, apoptosis, cell same conditions. After 2 days, cells were processed cycle or immunofluorescence protocols. according to the qPCR, β-Gal staining, apoptosis, cell cycle or immunofluorescence protocols.

[2] = tested on: H3K9ac (the target of SIRT1, SIRT2 and SIRT6); assay: Sirtuin activity assay in HDF: H3K9ac levels (Western blot); format: cell-based, human; settings: HDF treated 24h;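 further: screen looked for decreased acetylation as a sign of sirtuin activation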
Experimental: Figure 1 (A) Schematic representation of the compound testing for sirtuin activity evaluation in HDF. Cells were treated with or without the compounds for 24h and harvested for analysis. […] (C) Western Blot analysis and (D) quantification of H4K16ac and H3K9ac levels in cells treated with Resveratrol or Shikimic acid at the indicated concentrations. H4K16 and H3K9 levels were normalized to H4 and H3 levels respectively. Student T-test, *p<0.05, **p<0.01, ***p<0.001.
HDFs were plated in 100x20 mm2 cell culture plates and after 24h, fresh cell culture medium containing the compounds was added. After 24h, cells were detached with cell scrapers, harvested, and processed for qPCR or western blot.
as §1

p16^INK4a = assay: p16INK4a mRNA levels (qPCR); format: cell-based, human; settings: UVB-irradiated HDF, SA treatment
Experimental: (§2) Figure 4 (A) SRB and Trypan blue cell viability assays performed in cells treated with or without Shikimic acid (5, 10, 25 and 50 mM) for 24h. (B) Apoptosis detection using the Annexin V-FITC/PI double staining followed by flow cytometry in non-irradiated and non-treated cells, irradiated and non-treated cells and irradiated cells treated with Shikimic acid (10, 25 and 50 mM). (C) Representation and statistical analysis of the percentage of apoptotic cells in each of the conditions analyzed. (D) Cell cycle analysis using PI staining followed by flow cytometry. (E) Relative p16^INK4a mRNA levels monitored by qPCR in the indicated conditions. Student T-test, *p<0.05. […]
RNA was extracted from cell pellets using the Total RNA Purification Kit (Norgen, Canada), according to the manufacturer’s protocol. Extracted RNA was quantified using a NanoDrop® ND-1000 UV-Vis Spectrophotometer (Thermo Fisher Scientific, USA) and 300 ng of RNA were retrotranscribed to cDNA using the PrimeScriptTM RT reagent kit (Takara Bio Inc., Japan). cDNA was diluted 1/10 in ultrapure water and qPCR mix was prepared by adding cDNA (12 ng), SYBR green supermix (Bio Rad, USA), forward and reverse primers (0.2μM). […] The results were analyzed with Bio-Rad CFX Manager software. […]

γH2AX = γH2AX immunofluorescence assay; format: cell-based, human; settings: UVB irradiation, SA 10, 25, 50 mM
Experimental: as §2, with “*p<0.05. (F) Immunofluorescence of γH2AX in non-irradiated and non-treated cells, irradiated and non-treated cells and irradiated cells treated with Shikimic acid (10, 25 and 50 mM).” for “*p<0.05.”
The staining and detection of γH2AX foci by immunofluorescence was performed as previously described. Slides were analyzed by confocal microscopy using a Confocal Leica SP5 microscope (Leica Microsystems) with a 63x objective.

Structure (SMILES): O=C(O)C1=C[C@@H](O)[C@@H](O)[C@H](O)C1 [Shikimic acid]
- SIRT1 gene expression and protein levels (SIRT1): did not observe any significant correlation with gene expression and protein levels
- SA-β-Gal accumulation/staining [1]: significant decrease in SA-β-Gal accumulation
- prevention of UV-induced cellular senescence ([1]; SA-β-Gal and HAS2 markers): prevented the development of senescence
- effect on H3K9ac levels [2]: induced a similar effect on both targets
- p16INK4a mRNA levels (p16^INK4a): downregulation of the cell cycle regulator p16
- accumulation of DNA damage (γH2AX) (γH2AX): did not alter the accumulation of DNA damage
